Data: PubChem BioAssay AID624090 (The Scripps Research Institute Molecular Screening Center, 2012)
Active and inactive are the calls of the source.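 Rule for the calls: active = AmpC beta-lactamase inhibition with IC50 of 10 µM or lower; inactive = the rest.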

Molecular target: AmpC beta-lactamase (Escherichia coli)
Test: AmpC inhibition by nonselective VIM-2 inhibitor candidates, late-stage follow-up, selectivity assay for nonselective VIM-2 inhibitor project, biochemical, absorbance, probe candidates and analogs (AID 624090)
Conditions: recombinant AmpC, nitrocefin hydrolysis

Row | SMILES | IC50
1 | CN1CCN(NC(=O)CN2C(=O)/C(=C/c3c(Cl)ccc(Cl)c3Cl)SC2=S)CC1 | > 60 µM (inactive)
2 | CN1CCN(NC(=O)CN2C(=O)/C(=C/c3c(Cl)cccc3Cl)SC2=S)CC1 | > 60 µM (inactive)
